Measured values reported in PMC6627469 (Journal of Medicinal Chemistry, 2019).
Entries after “also recorded” stand apart in the source; their conditions may differ.

Columns and labels:
[1] = tested on: Influenza A virus WU95 (containing a H3 protein of a human H3N2 virus); format: binding
H3-containg WU95 virus = assay: Hemagglutination inhibition; format: cell-based, Influenza A virus; conditions: relative to the potency of 8, corrected for valency
IAV WU95 = format: cell-based, Influenza A virus

Compound	rel pot. (BLI) [1]	rel pot. per sugar (BLI) [1]	rel pot. per sugar (HAI) (H3-containg WU95 virus)	IC50 BLI [1]	effect on infection, single agent (IAV WU95)
C#CCO[C@@H]1O[C@H](CO)[C@@H](O[C@@H]2O[C@H](CO[C@]3(C(=O)O)C[C@H](O)[C@@H](NC(C)=O)[C@H]([C@H](O)[C@H](O)CO)O3)[C@H](O)[C@H](O)[C@H]2O)[C@H](O)[C@H]1NC(C)=O [Compound 7]	1 (1)	1 (1)			
CC(=O)N[C@H]1[C@H]([C@H](O)[C@H](O)CO)O[C@@](OC[C@H]2O[C@@H](O[C@H]3[C@H](O)[C@@H](O)[C@H](OCc4cn(CCCC(=O)Nc5cccc(-c6cc(-c7cccc(NC(=O)CCCn8cc(CO[C@@H]9O[C@H](CO)[C@@H](O[C@@H]%10O[C@H](CO[C@]%11(C(=O)O)C[C@H](O)[C@@H](NC(C)=O)[C@H]([C@H](O)[C@H](O)CO)O%11)[C@H](O)[C@H](O)[C@H]%10O)[C@H](O)[C@H]9O)nn8)c7)cc(-c7cccc(NC(=O)CCCn8cc(CO[C@@H]9O[C@H](CO)[C@@H](O[C@@H]%10O[C@H](CO[C@]%11(C(=O)O)C[C@H](O)[C@@H](NC(C)=O)[C@H]([C@H](O)[C@H](O)CO)O%11)[C@H](O)[C@H](O)[C@H]%10O)[C@H](O)[C@H]9O)nn8)c7)c6)c5)nn4)O[C@@H]3CO)[C@H](O)[C@@H](O)[C@H]2O)(C(=O)O)C[C@@H]1O [Compound 10]	20 (7)	20 (7)	2		
CC(=O)N[C@H]1[C@H](O[C@H]2[C@@H](O)[C@@H](CO)O[C@@H](O[C@H]3[C@H](O)[C@@H](O)[C@H](n4cc(-c5ccc(-c6cn(CCCC(=O)Nc7cccc(-c8cc(-c9cccc(NC(=O)CCCn%10cc(-c%11ccc(-c%12cn([C@@H]%13O[C@H](CO)[C@@H](O[C@@H]%14O[C@H](CO)[C@H](O)[C@H](O[C@@H]%15O[C@H](CO)[C@@H](O[C@@H]%16O[C@H](CO)[C@H](O)[C@H](O)[C@H]%16O)[C@H](O)[C@H]%15NC(C)=O)[C@H]%14O)[C@H](O)[C@H]%13O)nn%12)cc%11)nn%10)c9)cc(-c9cccc(NC(=O)CCCn%10cc(-c%11ccc(-c%12cn([C@@H]%13O[C@H](CO)[C@@H](O[C@@H]%14O[C@H](CO)[C@H](O)[C@H](O[C@@H]%15O[C@H](CO)[C@@H](O[C@@H]%16O[C@H](CO)[C@H](O)[C@H](O)[C@H]%16O)[C@H](O)[C@H]%15NC(C)=O)[C@H]%14O)[C@H](O)[C@H]%13O)nn%12)cc%11)nn%10)c9)c8)c7)nn6)cc5)nn4)O[C@@H]3CO)[C@@H]2O)O[C@H](CO)[C@@H](O[C@@H]2O[C@H](CO)[C@H](O)[C@H](O)[C@H]2O)[C@@H]1O [Compound 13]				did not yield any detectable inhibition in the assay up to the 20 μM; also recorded: no inhib at 20 μM	
CC(=O)N[C@H]1[C@H]([C@H](O)[C@H](O)CO)O[C@@](OC[C@H]2O[C@@H](O[C@H]3[C@H](O)[C@@H](O)[C@H](OCc4cn([C@@H]5O[C@H](CO)[C@@H](n6cc(-c7ccc(-c8cn([C@H]9[C@H](O)[C@@H](O)[C@H](n%10cc(CO[C@@H]%11O[C@H](CO)[C@@H](O[C@@H]%12O[C@H](CO[C@]%13(C(=O)O)C[C@H](O)[C@@H](NC(C)=O)[C@H]([C@H](O)[C@H](O)CO)O%13)[C@H](O)[C@H](O)[C@H]%12O)[C@H](O)[C@H]%11O)nn%10)O[C@@H]9CO)nn8)cc7)nn6)[C@H](O)[C@H]5O)nn4)O[C@@H]3CO)[C@H](O)[C@@H](O)[C@H]2O)(C(=O)O)C[C@@H]1O [Compound 17]	23 (12)	23 (12)			
CCC(CC)O[C@@H]1C=C(C(=O)O)C[C@H](N)[C@H]1NC(C)=O [oseltamivir carboxylate]					little effect
